Assay results from patent US20120135519A1, “INDUCED DERIVATION OF SPECIFIC ENDODERM FROM hPS CELL-DERIVED DEFINITIVE ENDODERM” (Cellartis AB, priority 2009, published 2012).
“Also recorded” adds a separate entry of the source.

Legend:
Assay type in all cases: cell-based, human
PDX1 expression = experiment: FGF inhibition assays: PDX1 expression in FGF2-treated hPS cell-derived definitive endoderm; settings: for PDX1 expression: with FGF2 (64 ng/ml), real-time PCR, fold vs control at day eleven
Procedure: FGF receptor inhibition assays were performed by adding SU5402 (Calbiochem; […]), LY294002 (Cell Signalling technology; 12.5 μM) and U1026 (Cell Signalling technology; 10 μM) to the medium following DE induction at day three. Control cultures were treated with equal volume of the diluent DMSO. Fresh medium supplemented with appropriate inhibitor was added daily. Two to three samples were taken from separate wells at different time points (day 9-12) for mRNA analysis for each independent experiment.
(§1) Total RNA was extracted with GenElute Mammalian total RNA kit (Sigma-Aldrich). Total RNA concentrations were measured with the NanoDrop ND-1000 spectrophotometer (Nanodrop Technologies). Reverse transcription was performed with SuperScript III, according to the manufacturer's instructions, using 2.5 μM random hexamer and 2.5 μM oligo(dT) (Invitrogen). Real-time PCR measurements were performed on an ABI PRISM 7900HT Sequence Detector System (Applied Biosystems). 20 μl reactions containing 10 μl SuperMix-UDG w/ROX, 400 nM of each primer, 0.125× SYBR Green I (all reagents from Invitrogen) were used. Primer sequences are available as supplementary data (FIG. 6). Formation of expected PCR products was confirmed by agarose gel electrophoresis and melting curve analysis. Gene expression data was normalized against ACTB or RPL7 expression. […] Real-time PCR data analysis was performed as described (Bustin, 2000; Stahlberg et al., 2005).

[1] = system: hPS cell derived definitive endoderm; experiment: Real-time PCR marker expression in hPS cell-derived definitive endoderm treated with FGF2
Procedure: hPS cells were seeded at a density of 12,000-24,000 cells/cm^2 and cultured until confluence. hPS cells were then differentiated into definitive endoderm as described previously (D'Amour et al., 2005). Briefly, cells were washed in PBS and treated with 100 ng/ml Activin A (R&D systems) and 25 ng/ml Wingless-type MMTV integration site family, member 3A (Wnt3a) in RPM! 1640 (GIBCO, Invitrogen) for three days in low serum (0-0.2% FBS).
(§2) At day three, cells were washed with PBS and human FGF2 (Invitrogen) was added at different concentrations (0-256 ng/ml according to specifications in the results) in a KO-DMEM based medium containing 1% Penicillin-streptomycin, 1% Glutamax, 1% non-essential amino acids, 0.1mM beta-Mercaptoethanol and 12% knockout serum replacement (all reagents from Invitrogen). Medium was changed every day. Control cultures without FGF2 were grown in parallel and cell morphology was monitored daily. At each time point, two to four biological replicates were taken for each independent experiment. More specifically, each well was divided into 4-5 equal pieces depending on the number of time points that were analyzed.
as §1

hPS cells = experiment: Immunofluorescence stainings of hPS cells treated with different FGF2 concentrations
Procedure: as §2
hPS cells were fixed in 4% paraformaldehyde for 15 minutes at room temperature and washed three times in PBS-T (0.1% Triton X-100 in PBS). Fixed cells were permeabilized with 0.5% Triton X-100 in PBS for 15 minutes and blocked in PBS-T supplemented with 5% normal donkey serum (Jackson lmmunoresearch) for 1 h at room temperature before they were incubated overnight at 4° C. with the following primary antibodies and dilutions: goat polyclonal antibody (pAb) anti-FOXA-2 (kind gift from Palle Serup; Santa Cruz Biotechnology; 1:200), Guinea Pig pAb anti-PDX-1 (Chris Wright; BetaCellBiologyConsortium; 1:1500), Goat anti-PDX-1 (Chris Wright; BetaCellBiologyConsortium; 1:1500), rabbit pAb anti-NKX6.1 (BetaCellBiologyConsortium; 20 1:4000), mouse anti-CDX-2 (kind gift from Jonathan Draper; Biogenex; 1:500), rabbit pAb anti-SOX-9 (Chemicon; 1:500), rabbit anti-HNF-6 (Santa Cruz Biotechnology; 1:400), mouse mAb-anti PH-3 (Cell Signaling technology; 1:50), rabbit pAb-anti MKi67 (Novocastra; 1:200), rabbit anti-S0X2 (kind gift from Palle Serup; Chemicon; 1:250), goat anti-albumin (Bethyl laboratories; 1:300). After overnight incubation cells were washed three times for 5 minutes in PBS; and incubated with corresponding fluorescent secondary antibodies (Alexa 488, Cy3 and 647; Jackson lmmunoresearch and Invitrogen; diluted according to the manufacturer's instructions) for 60 min in PBS-T supplemented with 5% serum at room temperature. Cell nuclei were visualized by 4′-6′diamidino-2-phenylindole (DAPI) (Sigma-Aldrich; 1:1000) incubation for 4 minutes. Immunofluorescence stainings were detected and analyzed by epifluorescence microscopy (Zeiss Axioplan 2).
The percentage of PDX1 positive cells was calculated using the Imaris Imaging software (Bitplane). Ten randomly selected fields were chosen for each parameter. Using DAPI staining the software estimated the total area of cells. The area of the PDX1 positive cells was calculated in the same manner. Finally, the percentage of PDX1 positive cells was calculated by dividing the area of PDX1 positive cells by the DAPI positive area. Raw data from realtime PCR measurements was exported from SDS 2.2.1 and analyzed by Microsoft Excel graph pad. All data were statistically analyzed by multivariate comparison (one-way ANOVA) with Bonferroni correction. All values are depicted as mean±standard error of the mean (SEM) and considered significant if p<0.05.

[2] = system: hPS-derived definitive endoderm; experiment: Differentiation towards PDX-1 positive pancreatic endoderm with a single FGF instead of FGF2; settings: used alone instead of FGF2
[3] = all FGF2 treated samples (4-256 ng/ml), day eleven, vs control
[4] = higher FGF2 concentration, day eleven
[5] = increasing FGF2 concentrations, day eleven, vs control (Activin A only)

Molecule: N#CC(=C(/N)Sc1ccccc1N)/C(C#N)=C(/N)Sc1ccccc1N [U1026]
- PDX1 expression (PDX1 expression; inhibitor 10 μM): diminished; also recorded: significantly reduced

Molecule: FGF2: human fibroblast growth factor 2 (Invitrogen) added to the culture medium
- PDX1 mRNA expression ([1]; 4 ng/ml FGF2, day eleven, vs control (Activin A only)): remained unchanged
- NKX6-1 mRNA expression ([1]; 64 ng/ml FGF2, day eleven): peak expression
- PDX1 mRNA expression ([1]; 64 ng/ml FGF2, day eleven): peak expression
- CDX2 mRNA expression ([1]; 256 ng/ml FGF2, day eleven): upregulated
- FGF10 mRNA expression ([1]; 256 ng/ml FGF2, day eleven): peak expression
- MNX1 mRNA expression ([1]; 256 ng/ml FGF2, day eleven): upregulated
- NKX2-1 mRNA expression ([1]; 256 ng/ml FGF2, day eleven): peak expression
- PTCH1 mRNA expression ([1]; 256 ng/ml FGF2, day eleven): peak expression
- SHH mRNA expression ([1]; 256 ng/ml FGF2, day eleven): peak expression
- SOX2 mRNA expression ([1]; 256 ng/ml FGF2, day eleven): significantly upregulated
- SPRY2 mRNA expression ([1]; 256 ng/ml FGF2, day eleven): peak expression
- CDX1 mRNA expression ([1]; FGF2 range tested, day eleven): remained unaffected
- NGN3 mRNA expression [1, 3]: upregulated
- SOX9 mRNA expression [1, 3]: upregulated
- CPA1 mRNA expression ([1]; all samples, day eleven): remained unchanged
- FOXA2 mRNA expression ([1]; all samples, day eleven): remained unchanged
- CDX4 expression ([1]; any FGF2 concentration): not detected
- FGFR1 expression [1, 4]: upregulated
- FGFR2 expression [1, 4]: downregulated
- FGFR3 expression [1, 4]: upregulated
- FGFR4 expression [1, 4]: downregulated
- thyroglobulin (TG) mRNA expression ([1]; increasing FGF2 concentrations (data not shown)): downregulated
- ALB mRNA expression [1, 5]: downregulated
- HNF4A mRNA expression [1, 5]: downregulated
- ONECUT1 mRNA expression [1, 5]: downregulated
- HHEX expression ([1]; tested FGF2 concentrations, non-dose-dependent): only moderately reduced
- ALB+ cells (ALB stainings) (hPS cells; 4 ng/ml FGF2): abundant
- PDX1+ cells (hPS cells; 4 ng/ml FGF2): absent
- number of PDX1+ cells (percentage of PDX1 positive cells) (hPS cells; 64 ng/ml FGF2, Imaris Imaging software, PDX1 area / DAPI area): 15-20%
- ALB+ cells (ALB stainings) (hPS cells; 256 ng/ml FGF2): none
- number of CDX2+ cells (hPS cells; 256 ng/ml FGF2): highest number
- PDX1+ cells (hPS cells; 32, 64 and 256 ng/ml FGF2): always present

Molecule: O=c1cc(N2CCOCC2)oc2c(-c3ccccc3)cccc12 [LY294002]
- PDX1 expression (PDX1 expression; inhibitor 12.5 μM): no significant effect

Molecule: Cc1c[nH]c(/C=C2\C(=O)Nc3ccccc32)c1CCC(=O)O [SU5402]
- number of PDX1 positive cells (PDX1 expression; SU5402 with FGF2 (64 ng/ml)): significantly decreased
- PDX1 expression (PDX1 expression; inhibitor 10 μM): significantly reduced

B1: FGF4: fibroblast growth factor tested alone instead of FGF2 (protein, UniProt P08620 31-206, looked up)
Fibroblast growth factor 4: APTAPNGTLEAELERRWESLVALSLARLPVAAQPKEAAVQSGAGDYLLGIKRLRRLYCNVGIGFHLQALPDGRIGGAHADTRDSLLELSPVERGVVSIFGVASRFFVAMSSKGKLYGSPFFTDECTFKEILLPNNYNAYESYKYPGMFIALSKNGKTKKGNRVSPTMKVTHFLPRL
- induction of differentiation towards PDX-1 positive pancreatic endoderm [2]: neither FGF4, FGF7 nor FGF10, when used alone instead of FGF2, is capable of inducing differentiation

B2: FGF10: fibroblast growth factor tested alone instead of FGF2 (protein, UniProt O15520 38-208, looked up)
Fibroblast growth factor 10: QALGQDMVSPEATNSSSSSFSSPSSAGRHVRSYNHLQGDVRWRKLFSFTKYFLKIEKNGKVSGTKKENCPYSILEITSVEIGVVAVKAINSNYYLAMNKKGKLYGSKEFNNDCKLKERIEENGYNTYASFNWQHNGRQMYVALNGKGAPRRGQKTRRKNTSAHFLPMVVHS
- induction of differentiation towards PDX-1 positive pancreatic endoderm [2]: neither FGF4, FGF7 nor FGF10, when used alone instead of FGF2, is capable of inducing differentiation

B3: FGF7: fibroblast growth factor tested alone instead of FGF2 (protein, UniProt P21781 32-194, looked up)
Fibroblast growth factor 7: CNDMTPEQMATNVNCSSPERHTRSYDYMEGGDIRVRRLFCRTQWYLRIDKRGKVKGTQEMKNNYNIMEIRTVAVGIVAIKGVESEFYLAMNKEGKLYAKKECNEDCNFKELILENHYNTYASAKWTHNGGEMFVALNQKGIPVRGKKTKKEQKTAHFLPMAIT
- induction of differentiation towards PDX-1 positive pancreatic endoderm [2]: neither FGF4, FGF7 nor FGF10, when used alone instead of FGF2, is capable of inducing differentiation
